{
  "source": "patent US20100292229A1",
  "about": "“TRYPHOSTIN-ANALOGS FOR THE TREATMENT OF CELL PROLIFERATIVE DISEASES” (The Board of Regents of the University of Texas System, priority 2006, published 2010)",
  "key": {"BCR-ABL": {"biological_target": "T1, BCR-ABL (Homo sapiens, UniProt P00519)", "T1 construct": "The BCR-ABL expressing CML cell line (K562); endogenous in cells; host or cells: K562; the other entry of the earlier key: BCR (P11274, Breakpoint cluster region protein)", "T1 sequence (P00519 with tags, fused parts or gaps)": "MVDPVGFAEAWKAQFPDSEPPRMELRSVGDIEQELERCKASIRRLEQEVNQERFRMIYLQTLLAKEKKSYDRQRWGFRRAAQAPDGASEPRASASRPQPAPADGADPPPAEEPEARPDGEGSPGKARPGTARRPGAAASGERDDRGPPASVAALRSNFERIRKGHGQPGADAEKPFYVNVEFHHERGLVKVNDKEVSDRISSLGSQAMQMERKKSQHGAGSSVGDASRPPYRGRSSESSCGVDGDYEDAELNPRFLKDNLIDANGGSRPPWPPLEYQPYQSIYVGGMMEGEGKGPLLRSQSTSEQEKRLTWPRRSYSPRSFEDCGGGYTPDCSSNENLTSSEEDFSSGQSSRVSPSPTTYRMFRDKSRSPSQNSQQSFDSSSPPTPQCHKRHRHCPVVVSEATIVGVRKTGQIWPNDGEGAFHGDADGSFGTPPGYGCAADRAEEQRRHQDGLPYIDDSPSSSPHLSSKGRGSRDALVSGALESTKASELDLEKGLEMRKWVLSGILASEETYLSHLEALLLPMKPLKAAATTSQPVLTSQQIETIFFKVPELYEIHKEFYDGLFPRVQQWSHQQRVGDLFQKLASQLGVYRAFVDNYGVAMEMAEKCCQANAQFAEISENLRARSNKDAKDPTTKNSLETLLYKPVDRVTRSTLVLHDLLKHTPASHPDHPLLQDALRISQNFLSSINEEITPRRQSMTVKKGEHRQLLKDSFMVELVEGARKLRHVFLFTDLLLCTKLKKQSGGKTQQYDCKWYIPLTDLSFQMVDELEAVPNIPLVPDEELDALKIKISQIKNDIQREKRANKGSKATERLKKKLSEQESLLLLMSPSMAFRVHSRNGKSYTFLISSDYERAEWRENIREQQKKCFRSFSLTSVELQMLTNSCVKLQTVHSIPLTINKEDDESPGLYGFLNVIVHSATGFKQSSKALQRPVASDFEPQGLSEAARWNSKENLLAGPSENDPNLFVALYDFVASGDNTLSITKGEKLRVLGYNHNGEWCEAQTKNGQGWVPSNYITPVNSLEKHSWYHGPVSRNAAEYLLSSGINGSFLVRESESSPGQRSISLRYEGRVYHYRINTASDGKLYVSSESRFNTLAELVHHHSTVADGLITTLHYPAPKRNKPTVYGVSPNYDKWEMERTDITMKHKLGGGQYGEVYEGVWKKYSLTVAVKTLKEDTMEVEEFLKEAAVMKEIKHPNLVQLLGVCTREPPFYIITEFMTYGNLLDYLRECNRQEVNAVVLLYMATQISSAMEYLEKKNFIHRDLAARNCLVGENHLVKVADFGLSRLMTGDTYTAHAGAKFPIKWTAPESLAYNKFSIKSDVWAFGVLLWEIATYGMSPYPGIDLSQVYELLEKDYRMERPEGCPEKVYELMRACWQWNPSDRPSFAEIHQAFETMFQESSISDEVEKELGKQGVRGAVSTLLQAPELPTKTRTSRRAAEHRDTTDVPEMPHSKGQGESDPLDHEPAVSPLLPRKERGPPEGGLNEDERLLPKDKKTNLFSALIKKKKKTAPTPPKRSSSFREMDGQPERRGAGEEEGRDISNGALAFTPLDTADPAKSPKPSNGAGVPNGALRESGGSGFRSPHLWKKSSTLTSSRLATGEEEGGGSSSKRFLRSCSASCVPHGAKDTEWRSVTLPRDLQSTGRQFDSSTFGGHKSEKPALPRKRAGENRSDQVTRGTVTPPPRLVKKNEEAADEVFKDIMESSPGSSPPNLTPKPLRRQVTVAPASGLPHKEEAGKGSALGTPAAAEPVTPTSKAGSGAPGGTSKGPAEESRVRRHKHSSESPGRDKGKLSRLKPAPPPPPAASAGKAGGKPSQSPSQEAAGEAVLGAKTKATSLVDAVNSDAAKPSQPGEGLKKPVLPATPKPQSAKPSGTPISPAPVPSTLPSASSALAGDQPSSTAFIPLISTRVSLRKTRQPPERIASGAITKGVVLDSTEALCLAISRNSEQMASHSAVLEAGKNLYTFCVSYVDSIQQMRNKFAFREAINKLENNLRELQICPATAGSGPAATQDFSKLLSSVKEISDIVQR", "assay": "BCR-ABL protein level and distribution in K562 cells", "assay_type": "cell-based", "method": "Top: The BCR-ABL expressing CML cell line (K562) was incubated with 5 μM Degrasyn for the interval noted before cells were lysed and protein extracts were analyzed for BCR-ABL protein (using anti-Abl) levels by immunoblotting. The blot was stripped and reprobed for actin as a protein loading control.\nBottom: RNA from cells treated as described above was isolated (TRIzol Reagent) and used as a template to generate cDNA. This material was then used to prime a real-time PCR reaction for bcr-abl and ubiquitin (Ub) transcripts. The values are reported in terms of the ratio of bcr-abl to Ub.\nK562 cells were treated with Degrasyn (2 h, 5 μM) before cells were lysates were prepared and analyzed for BCR-ABL, c-Abl and BCR protein levels. Actin was probed on the stripped blot to control for protein loading.\nK562 cells were treated with nothing (Control), vehicle (DMSO; 0.1%), 5 μM Degrasyn or 5 μM geldanamycin for the interval indicated. Cell lysates were prepared and BCR-ABL, HSP70 and Actin were subjected to immunoblotting.\nK562 cells were treated with […] Degrasyn for 1 to 2 h before equal protein cell extracts were immunoblotted for BCR-ABL, c-Abl, BCR, HSP90, HSP70 and actin.\nK562 cells were treated with Degrasyn (5 μM) for the interval indicated before cell lysates were prepared (Soluble Fraction; prepared in buffer containing 1% NP-40, 0.5% Na-deoxycholate, 0.1% Na-dodecyl sulfate). […]\nWestern Blot analysis. Cells were harvested, washed twice in cold 1×PBS and lysed in modified RIPA lysis buffer (150 mM NaCl, 1% NP-40, 0.5% Na-deoxycholate [DOC], 0.1% Na-dodecyl sulfate [SDS], 50 mM Tris-HCl (pH 7.5), 1 mM EDTA, 1 mM NaF, 2 mM Na-vanadate, with protease inhibitors (1 mM PMSF, 1 mM benzamidine, 10 μg/ml aprotinin, 10 μg/ml leupeptin) on ice for 30 min. The lysed cells were centrifuged at 13,000 rpm for 30 min and the supernatant collected. The protein concentration of the cell lysate was determined by the Bradford Protein Assay. Fifty to 60 μg of protein were resolved in a 10% SDS-PAGE, and transferred to a PVDF membrane. […]\nReal-Time Quantitative TR-PCR analysis of bcr/abl mRNA. […]"}, "w/t BCR-ABL": {"biological_target": "T2, w/t BCR-ABL (Homo sapiens, UniProt P00519)", "T2 construct": "BV-173, a lymphoid CML cell line expressing w/t BCR-ABL; endogenous in cells; host or cells: BV-173; the other entry of the earlier key: BCR (P11274, Breakpoint cluster region protein)", "T2 sequence (P00519 with tags, fused parts or gaps)": "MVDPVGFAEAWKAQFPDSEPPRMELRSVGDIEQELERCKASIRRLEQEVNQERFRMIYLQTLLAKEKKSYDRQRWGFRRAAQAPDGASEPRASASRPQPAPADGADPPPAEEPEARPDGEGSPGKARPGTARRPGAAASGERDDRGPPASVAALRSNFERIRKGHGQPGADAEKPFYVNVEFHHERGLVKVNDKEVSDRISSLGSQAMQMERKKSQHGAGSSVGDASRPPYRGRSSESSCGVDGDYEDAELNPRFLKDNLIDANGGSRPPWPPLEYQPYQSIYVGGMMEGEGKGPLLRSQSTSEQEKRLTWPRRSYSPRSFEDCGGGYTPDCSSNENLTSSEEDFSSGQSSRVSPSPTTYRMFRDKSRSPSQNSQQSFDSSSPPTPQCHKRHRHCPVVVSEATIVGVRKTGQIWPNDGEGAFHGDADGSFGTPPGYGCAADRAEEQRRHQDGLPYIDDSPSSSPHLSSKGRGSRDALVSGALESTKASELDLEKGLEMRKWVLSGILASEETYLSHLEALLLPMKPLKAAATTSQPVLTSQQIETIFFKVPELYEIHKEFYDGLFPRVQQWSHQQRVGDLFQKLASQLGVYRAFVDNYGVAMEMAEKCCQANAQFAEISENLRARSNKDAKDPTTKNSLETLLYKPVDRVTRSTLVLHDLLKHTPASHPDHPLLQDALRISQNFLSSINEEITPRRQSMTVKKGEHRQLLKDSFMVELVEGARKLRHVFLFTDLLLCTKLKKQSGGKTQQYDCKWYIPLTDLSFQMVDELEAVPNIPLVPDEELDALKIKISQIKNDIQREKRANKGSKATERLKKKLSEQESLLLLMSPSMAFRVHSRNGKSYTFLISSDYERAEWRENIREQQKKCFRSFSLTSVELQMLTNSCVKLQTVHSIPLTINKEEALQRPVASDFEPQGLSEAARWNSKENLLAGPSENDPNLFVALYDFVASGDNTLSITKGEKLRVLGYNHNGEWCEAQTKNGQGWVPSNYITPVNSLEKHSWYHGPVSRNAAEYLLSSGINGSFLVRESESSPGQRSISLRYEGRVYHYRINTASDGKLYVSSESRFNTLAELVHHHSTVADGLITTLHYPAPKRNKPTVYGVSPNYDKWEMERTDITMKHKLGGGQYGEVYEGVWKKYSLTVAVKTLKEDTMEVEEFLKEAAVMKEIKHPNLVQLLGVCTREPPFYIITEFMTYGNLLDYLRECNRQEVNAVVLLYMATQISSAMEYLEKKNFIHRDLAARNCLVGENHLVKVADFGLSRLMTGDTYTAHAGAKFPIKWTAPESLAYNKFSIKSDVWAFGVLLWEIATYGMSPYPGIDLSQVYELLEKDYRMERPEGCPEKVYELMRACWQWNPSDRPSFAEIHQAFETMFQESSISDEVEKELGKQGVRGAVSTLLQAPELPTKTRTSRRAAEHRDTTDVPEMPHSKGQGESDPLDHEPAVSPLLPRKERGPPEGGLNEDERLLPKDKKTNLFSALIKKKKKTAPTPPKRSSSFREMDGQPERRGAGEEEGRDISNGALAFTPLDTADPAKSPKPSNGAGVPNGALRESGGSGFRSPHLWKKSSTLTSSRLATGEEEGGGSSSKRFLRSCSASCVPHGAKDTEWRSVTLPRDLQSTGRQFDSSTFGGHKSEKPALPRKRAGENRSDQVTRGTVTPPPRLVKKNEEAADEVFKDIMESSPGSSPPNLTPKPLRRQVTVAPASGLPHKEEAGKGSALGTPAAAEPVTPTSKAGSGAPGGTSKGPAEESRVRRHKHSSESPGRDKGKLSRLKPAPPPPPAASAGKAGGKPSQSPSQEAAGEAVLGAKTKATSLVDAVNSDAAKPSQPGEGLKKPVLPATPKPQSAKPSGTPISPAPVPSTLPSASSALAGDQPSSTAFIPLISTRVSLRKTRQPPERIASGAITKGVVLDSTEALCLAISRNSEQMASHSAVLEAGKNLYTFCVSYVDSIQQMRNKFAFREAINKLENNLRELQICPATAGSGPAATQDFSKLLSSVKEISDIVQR", "assay": "pBCR-ABL and BCR-ABL immunoblot in BV-173 cells", "assay_type": "cell-based", "set-up": "dose or concentration left out as unconfirmed", "settings": "1 h", "method": "Actin was probed as protein loading control.\nWestern Blot analysis. […] Western blotting was performed using specific primary antibodies Peroxidase-conjugated affiniPure anti-Mouse Anti-Rabbit secondary antibodies (Jackson Immunoresearch Laboratories, West Grove, Pa.). The proteins were visualized with ECL Plus reagents (Amersham Biosciences)."}, "[1]": {"system": "c-myc and activated Stat3", "assay": "c-myc, pY-Stat3, Stat3, p53, p-MAPK immunoblot in A375 melanoma cells", "assay_type": "cell-based", "settings": "A375, 2 h", "method": "A375 melanoma cells were pretreated with Degrasyn at the concentration noted for 2 h before the addition of 10 ng/ml IL-6 for 15 min. Cell lysates were prepared and equal protein aliquots were resolved by SDS-PAGE and immunoblotted for c-myc, p53 (wild-type), activated Stat3 (pY-Stat3), Stat3 and activated Erk1/2 kinase (p-MAPK).\nWestern Blot analysis. Cells were harvested, washed twice in cold 1×PBS and lysed in modified RIPA lysis buffer (150 mM NaCl, 1% NP-40, 0.5% Na-deoxycholate [DOC], 0.1% Na-dodecyl sulfate [SDS], 50 mM Tris-HCl (pH 7.5), 1 mM EDTA, 1 mM NaF, 2 mM Na-vanadate, with protease inhibitors (1 mM PMSF, 1 mM benzamidine, 10 μg/ml aprotinin, 10 μg/ml leupeptin) on ice for 30 min. The lysed cells were centrifuged at 13,000 rpm for 30 min and the supernatant collected. The protein concentration of the cell lysate was determined by the Bradford Protein Assay. Fifty to 60 μg of protein were resolved in a 10% SDS-PAGE, and transferred to a PVDF membrane. Western blotting was performed using specific primary antibodies Peroxidase-conjugated affiniPure anti-Mouse Anti-Rabbit secondary antibodies (Jackson Immunoresearch Laboratories, West Grove, Pa.). The proteins were visualized with ECL Plus reagents (Amersham Biosciences)."}, "A375 melanoma tumors": {"system": "A375 melanoma tumors", "assay": "A375 melanoma tumors in nude mice", "assay_type": "in vivo, Swiss nude mice", "method": "Ten Swiss nude mice (6-7 weeks of age) were injected subcutaneously (sc) with […] A375 melanoma cells on Day 0. When tumor nodules were palpable (Day 8), animals were divided into 2 groups. One group (Control) received 0.1 ml DMSO/PEG (1:1) intraperitoneally (ip) every other day […] for a total of 14 injections. The second group received 40 mg/kg Degrasyn ip beginning on Day 8 and repeated every other day for a total of 14 injections. Body weight and tumor volumes (by calipers) were measured every other day, the latter plotted vs. time. […] All animals were euthanized when tumor volumes (in the control group) achieved the maximal allowable burden (1.5 cm^3). The average +/−S.E.M. tumor volume from 5 animals per group is shown.\nAnti-tumor studies. Swiss Nu/Nu mice were obtained from the breeding facility in the Department of Experimental Radiotherapy at M.D. Anderson Cancer Center. On Day 0, 200 μl of an A375 cell suspension (5×10^6 cells/ml) were injected (s.c.) into female Swiss nude mice 6-7 weeks of age. At the interval noted, compounds were injected (i.p. or oral gavage) into tumor bearing mice in a 0.1 ml suspension of DMSO/PEG300 (50/50). Degrasyn (40 mg/kg) was administrated on an every other day schedule, for 5 or more injections. […] Tumor volumes were measured every other day using calipers (Cel Associates, Houston, Tex.)."}},
  "data": [
    {"smiles": "CCC[C@H](NC(=O)/C(C#N)=C/c1cccc(Br)n1)c1ccccc1", "note": "[Degrasyn]", "values": [
      {"measurement": "Cytoplasmic staining of BCR-ABL (microscopy)", "setting": "BCR-ABL; 5 μM", "result": "reduced cytoplasmic staining of BCR-ABL"},
      {"measurement": "BCR-ABL, c-Abl, BCR, HSP90, HSP70 levels", "setting": "BCR-ABL; 5 µM, 1 to 2 h", "result": "down-regulated"},
      {"measurement": "BCR-ABL, c-Abl and BCR protein levels", "setting": "BCR-ABL; 2 h, 5 μM", "result": "reduced BCR-ABL protein levels but had minimal effects on c-Abl and BCR"},
      {"measurement": "pBCR-ABL and BCR-ABL protein levels, BV-173", "setting": "w/t BCR-ABL", "result": "reduced BCR-ABL protein levels in both w/t and mutant BCR-ABL expressing cells"},
      {"measurement": "c-myc protein levels and Stat3 activation", "setting": "[1]; then IL-6 10 ng/ml 15 min", "result": "reduced c-myc protein levels suppressed Stat3 activation at higher concentrations"},
      {"measurement": "Stat3, p-MAPK and p53 levels", "setting": "[1]; then IL-6 15 min", "result": "not affected"},
      {"measurement": "Animal weight", "setting": "A375 melanoma tumors; 40 mg/kg ip every other day", "result": "did not affect animal weight"},
      {"measurement": "Growth of A375 tumors (tumor volume)", "setting": "A375 melanoma tumors; 40 mg/kg ip every other day from Day 8, 14 injections", "result": "suppresses the growth of A375 tumors in vivo"}
    ]}
  ]
}
